From publication PMC4175339, “Inhibition of the Functional Interplay between Endoplasmic Reticulum (ER) Oxidoreduclin-1α (Ero1α) and Protein-disulfide Isomerase (PDI) by the Endocrine Disruptor Bisphenol A” (The Journal of Biological Chemistry, 2014) come the findings set out here.

Each structure is given as a SMILES string.

The assay has as its target T1, human PDI + hyperactive human Ero1α (Ero1α-mediated PDI oxidation) (Homo sapiens, UniProt P07237).
T1 construct: gene P4HB; recombinant from E. coli; with ERO1-like protein alpha
In words: NADPH consumption assay coupled to glutathione reductase, A340. The class given is biochemical.

T1 sequence (P07237 18-508): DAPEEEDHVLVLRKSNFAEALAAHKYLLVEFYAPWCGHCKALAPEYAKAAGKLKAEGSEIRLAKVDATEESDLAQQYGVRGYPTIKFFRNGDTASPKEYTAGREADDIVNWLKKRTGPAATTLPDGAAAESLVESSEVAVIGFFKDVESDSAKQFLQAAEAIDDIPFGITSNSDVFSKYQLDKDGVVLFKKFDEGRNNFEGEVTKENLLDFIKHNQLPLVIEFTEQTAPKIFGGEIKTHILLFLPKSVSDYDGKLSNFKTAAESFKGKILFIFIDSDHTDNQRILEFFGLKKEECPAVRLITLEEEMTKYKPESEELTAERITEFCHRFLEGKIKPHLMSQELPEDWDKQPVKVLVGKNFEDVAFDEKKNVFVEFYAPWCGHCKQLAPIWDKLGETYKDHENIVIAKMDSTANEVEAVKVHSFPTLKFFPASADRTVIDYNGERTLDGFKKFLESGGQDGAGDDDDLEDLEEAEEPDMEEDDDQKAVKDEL
T1 sequence (Q96HE7 24-468 C104A/C131A partner): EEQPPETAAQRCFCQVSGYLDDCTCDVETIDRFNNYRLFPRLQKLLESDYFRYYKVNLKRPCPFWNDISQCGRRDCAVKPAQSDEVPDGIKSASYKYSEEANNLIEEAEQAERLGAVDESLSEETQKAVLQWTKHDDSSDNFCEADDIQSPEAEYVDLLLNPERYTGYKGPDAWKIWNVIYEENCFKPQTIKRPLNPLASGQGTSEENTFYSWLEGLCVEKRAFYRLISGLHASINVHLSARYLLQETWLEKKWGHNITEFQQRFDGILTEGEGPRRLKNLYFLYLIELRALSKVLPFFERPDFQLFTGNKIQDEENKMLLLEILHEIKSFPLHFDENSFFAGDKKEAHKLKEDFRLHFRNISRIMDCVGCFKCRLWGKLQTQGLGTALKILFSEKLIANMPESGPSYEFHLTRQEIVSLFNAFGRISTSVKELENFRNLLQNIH

Usually IC50 stands for the concentration that gives 50% inhibition. As for `CC(C)(c1ccc(O)cc1)c1ccc(O)cc1` [bisphenol A, 2,2′-bis(4-hydroxyphenyl) propane], the half-maximal inhibitory concentration (IC50) came to 41 µM.
